Where a SMILES comes first, the peptide text is derived from it. Bridges are numbered along the chain shown (N, C = ends). [ ]: non-standard residue; d: D form. The star is where a group is joined. d(aThr) = C[C@@H](O)[C@@H](N)C(=O)O; Isobutyryl = CC(C)C(=O)*; Dhb = C/C=C(\N)C(=O)O; Propionyl = CCC(=O)*
Assays:
Pseudomonas sp. G124 = assay: Crystal violet biofilm formation assay, Pseudomonas sp. G124; settings: crystal violet staining, 0.2 µg/µL, KB medium, 28 °C, 2 d
M. aurum = assay: Crystal violet biofilm formation assay, M. aurum; settings: crystal violet staining, 0.2 µg/µL, KB medium, 28 °C, 2 d
[1] = test system: Lysinibacillus sphaericus DSM1867; settings: for antibiotic activity against L. sphaericus (in words): agar diffusion, 5 µg/hole (Figure S97b); for inhibition zone against L. sphaericus: DSM1867, 0.1 mg/mL
P. syringae pv. glycinea = assay: Crystal violet biofilm formation assay, P. syringae pv. glycinea; settings: crystal violet staining, 0.2 µg/µL, KB medium, 28 °C, 2 d
[2] = test system: matrix metalloproteinase-2 and -9; settings: lung, gastric, and colorectal cancers; cited from earlier work
[3] = test system: lung, gastric, and colorectal cancers; settings: cited from earlier work

Row | Molecule | effect on biofilm formation in Pseudomonas sp. G124 (in words) (Pseudomonas sp. G124) | effect on biofilm formation in M. aurum (in words) (M. aurum) | antibiotic activity against L. sphaericus (in words) [1] | effect on biofilm formation in P. syringae pv. glycinea (in words) (P. syringae pv. glycinea) | inhibition zone against L. sphaericus [1] [mm] | expression of the matrix metalloproteinase-2 and -9 (in words) [2] | cancer cell motility (in words) [3]
1 | nobilamide A [nobilamide A (4)] | strongly induced | strongly induced | did not exhibit antimicrobial activity | strongly induced |  |  | 
2 | C/C=C1\NC(=O)[C@H](C)NC(=O)[C@H](C(C)C)NC(=O)[C@H](NC(=O)[C@H](Cc2ccccc2)NC(=O)[C@@H](CC(C)C)NC(=O)[C@@H](Cc2ccccc2)NC(=O)CC)[C@@H](C)OC1=O [A-3302-A (2), A-3302-A] (Propionyl-[dF][dL]F[d(aThr)]VA[Dhb]; ester 4-C) |  |  | powerful antibiotic activity |  | 18.3 |  | 
3 | nobilamide S [nobilamide S (18)] | induced biofilm formation |  |  | did not promote biofilm formation |  |  | 
4 | nobilamide W [nobilamide W (22)] | strongly induced | strongly induced |  | strongly induced |  |  | 
5 | nobilamide I [nobilamide I (8)] | less clear effect | less clear effect |  | worked best |  | suppressed | suppressed
6 | C/C=C1\NC(=O)[C@H](C)NC(=O)[C@H](C(C)C)NC(=O)[C@H](NC(=O)[C@H](Cc2ccccc2)NC(=O)[C@@H](CC(C)C)NC(=O)[C@@H](Cc2ccccc2)NC(=O)C(C)C)[C@@H](C)OC1=O [nobilamide J (9), nobilamide J] (Isobutyryl-[dF][dL]F[d(aThr)]VA[Dhb]; ester 4-C) |  |  | powerful antibiotic activity |  | 21.3 |  | 

Reference: publication PMC11505918, “The Epiphyte Bacillus sp. G2112 Produces a Large Diversity of Nobilamide Peptides That Promote Biofilm Formation in Pseudomonads and Mycobacterium aurum” (Biomolecules, 2024)
